Results taken from PubChem BioAssay (NCI).
Where “and” joins values, the source holds several entries; their conditions need not be identical. Equal entries are not always repeated.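 Interpolation was linear, between the two tested concentrations surrounding the appropriate level; five concentrations were tested over 48 hours in 96-well plates. GI50: concentration for 50% inhibition of growth. TGI denotes the concentration required for complete inhibition of growth.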

Assays:
Assay in all cases: inhibition of tumour cell growth, NCI panel, 48 h
[1] = system: ACHN renal
[2] = system: BT-549 breast
[3] = system: CCRF-CEM leukemia
[4] = system: HCC-2998 colon
[5] = system: MALME-3M melanoma
[6] = system: SNB-75 CNS
[7] = system: SR leukemia
[8] = system: T-47D breast
[9] = system: U251 CNS
[10] = system: UO-31 renal

Compound	GI50 [1] [µM]	TGI [1] [µM]	GI50 [2]	TGI [2]	GI50 [3]	TGI [3] [µM]	GI50 [4]	TGI [4]	GI50 [5]	TGI [5]	GI50 [6]	TGI [6]	GI50 [7]	TGI [7] [µM]	GI50 [8]	TGI [8]	GI50 [9]	TGI [9]	GI50 [10]	TGI [10]
C=CCCCOC1[C@H](OCc2ccccc2)C(OCc2ccccc2)C(OC)O[C@@H]1CNC(=O)c1cccc(I)c1 (some centres undefined)	5.76	> 100	8.79 µM	> 100 µM	3.55 µM	> 100	> 100 µM	> 100 µM	5.43 µM	> 100 µM	3.91 µM	56.5 µM	2.9 µM	14.6	4.74 µM	> 100 µM	4.66 µM	> 100 µM	9.51 µM	> 100 µM
O=C1CSC(c2ccccc2O)N1c1nnc(Cn2ccnc2)o1 (centres undefined)	4.96	> 100	6.26 µM	29.2 µM	4.37 µM	52.9	22.8 µM	89.5 µM	4.43 µM	26.2 µM	11.6 µM	> 100 µM	2.93 µM	> 100	6.11 µM	27.2 µM	11.7 µM	63.6 µM	4.35 µM	> 100 µM
COc1ccc(Oc2ccccc2NC(=O)CNC(=O)c2cccc3ccccc23)cc1	1.53	> 25	1.12 µM	> 25 µM	0.904 µM	> 25	1.41 µM	> 25 µM	> 25 µM	> 25 µM	–	–	0.166 µM	> 25	2.52 µM	19.6 µM	1.06 µM	> 25 µM	1.49 µM	> 25 µM
Nc1n[nH]c(N)c1N=Nc1ccc(O)cc1	15.6	61.1	14 µM	63.5 µM	20 µM	63	29.4 µM	> 100 µM	24.6 µM	60.3 µM	18.5 µM	41.6 µM	10.3 µM	59.8	14.2 µM	87.5 µM	21.2 µM	86.2 µM	13.7 µM	66.3 µM
Cc1cccc2c(Nc3ccc(NS(C)(=O)=O)cc3)c3ccc([N+](=O)[O-])cc3nc12	0.661	4.13	1.75 µM	7.47 µM	0.326 µM	4.52	1.49 µM	3.11 µM	1.21 µM	3.43 µM	1.12 µM	5.93 µM	0.0598 µM	2.69	0.147 µM	9.32 µM	0.419 µM	6.36 µM	1.77 µM	13 µM
COc1cc2c(c(OC)c1OC)-c1c(cc3c(c1OC)OCO3)CC(C)C(C)(O)C2OC(=O)c1ccccc1 (centres undefined)	–	> 100	–	> 100 µM	–	63.9	–	> 100 µM	–	> 100 µM	–	> 100 µM	–	55.9	–	> 100 µM	–	> 100 µM	–	87.3 µM
C[C@@H]1COCCN1c1cc(-c2ccnn2C)c2ccnc(-c3ccn[nH]3)c2n1	0.0417	0.596	0.0481 µM and 0.0691 µM	0.876 µM and 1.76 µM	0.0175 µM and 0.03 µM	> 23.7	0.0277 µM and 0.0581 µM	18.6 µM and > 100 µM	0.179 µM and 0.273 µM	1.52 µM and 3.7 µM	0.087 µM and 0.219 µM	0.596 µM and 1.8 µM	0.0241 µM and 0.103 µM	–	0.159 µM and 0.384 µM	0.79 µM and 2.81 µM	0.26 µM and 1 µM	14.6 µM and > 100 µM	0.0741 µM and 0.152 µM	0.792 µM and 1.92 µM
COc1cc(C2CC(=O)Nc3c2cc(Br)c2ccccc32)cc(Br)c1OC (centres undefined)	–	–	3.47 µM	> 71 µM	2.01 µM	21.5	4.53 µM	> 100 µM	1.81 µM	67.2 µM	0.998 µM	2.52 µM	0.416 µM	1.77	1.61 µM	5.26 µM	1.42 µM	3.7 µM	–	–
COc1ccc2c(c1)/C(=C\c1c[nH]c3ccc(OC)cc13)C(=O)N2	2.93	12.4	2.31 µM	9.1 µM	2.84 µM	9.33	3.77 µM	14.7 µM	8.52 µM	22.9 µM	1.94 µM	9.22 µM	2.39 µM	7.9	2.99 µM	13.4 µM	–	–	2.53 µM	11.9 µM
Nc1n[nH]c2ccc([C@@H]3Nc4cc5[nH]ncc5cc4[C@H]4C5CCC(C5)[C@@H]34)cc12 (some centres undefined)	0.723	53.5	0.725 µM	> 46 µM	0.344 µM	> 40.4	0.789 µM	49.1 µM	–	–	0.27 µM	22.9 µM	0.564 µM	> 100	0.498 µM	79.8 µM	0.43 µM	> 58 µM	0.626 µM	> 100 µM
